Tests used:
physchem = format: physicochemical
[1] = Intracerebral migration after administration via various paths; format: in vivo, mice
From the text: In this respect, the presently disclosed embodiment has a significant effect.

[2] = test system: C57BL/6J mouse with chronic constriction injury (CCI) of sciatic nerve; test: Pain behavior test (mechanical allodynia), chronic constriction injury (CCI) of sciatic nerve, von Frey hair; format: in vivo; settings: once a day from 7th to 14th day after CCI operation, Gabapentin 30 mg/kg i.p.
Method: Chronic pain was caused by performing a chronic constriction injury (CCI) operation of sciatic nerve on a hind leg of a C57BL/6J mouse (8 week old, n=4 in each group). Threshold values of mechanical strength which indicated avoidance behavior were recorded by pressing a von Frey hair against the foot pad of the mouse's hind leg (from the previous day of the CCI operation to the 14th day after the operation).
Regarding drugs, the below drugs were administered once a day from the 7th day to the 14th day after the operation, and the therapeutic effects were studied. In this example, “Compound No. 37” is a compound represented by the above formula (2).
Control: the same volume of physiological saline
Gabapentin: 30 mg/kg, intraperitoneal administration
Compound No. 37: 100 mg/kg, subcutaneous administration
Compound No. 37: 20 mg/kg, subcutaneous administration
Compound No. 37: 20 mg/kg, intraperitoneal administration

[3] = test system: glutamate concentration in cerebrospinal fluid; test: Cerebrospinal fluid glutamate concentration determination (HPLC); format: in vivo, mouse; settings: 14th day after CCI operation, compared with Gabapentin group
Method: On the 14th day after the CCI operation, cerebrospinal fluid were collected from the foramen magnum of the above-mentioned mice, and the glutamate concentration was measured quantitatively with HPLC.

LD50 test = settings: in vivo; read-out: LD50 (lethal dose 50%)
From the text: LD50 (lethal dose 50%) of the glycyrrhetinic acid derivative (the compound of the above formula (2)) of the disclosed embodiment and LD50 of carbenoxolone were compared.

[4] = test system: human superoxide dismutase 1 (SOD1) G93A mutant transgenic mice; test: Survival extension effect in ALS acute-onset model mice (Kaplan-Meier); format: in vivo, mouse; settings: 20 mg/kg intraperitoneal three times a week from 7-8 weeks of age; p<0.05
Method: The assessment of drug efficacy was conducted using, as an animal model of neurodegenerative diseases, the human superoxide dismutase 1 (SOD1) G93A mutant transgenic mice, which are widely used as an acute-onset model of amyotrophic lateral sclerosis (ALS).
Starting at 7-8 weeks of age, which is considered to be an early ALS onset period, the mice were intraperitoneally administered with 20 mg/kg body weight of the glycyrrhetinic acid derivative of the disclosed embodiment (Compound No. 37 group) or the same volume of physiological saline (saline group) three times a week.
The survival analysis was performed using the Kaplan-Meier method.

[5] = test system: human amyloid β1-42 peptide (Aβ) intraventricularly injected mice; test: Fear conditioned learning test in Alzheimer's disease model mice; format: in vivo, mouse; settings: 20 mg/kg intraperitoneal three times a week; Aβ 300 pmol/3 μl intraventricular; vs physiological saline group; p<0.05
Method: The assessment of drug efficacy of the glycyrrhetinic acid derivative of the disclosed embodiment (Compound No. 37 group) was conducted using, as an animal model of neurodegenerative diseases, the human amyloid β1-42 peptide (Aβ) intraventricularly injected mice (Doi et al., Am J Pathol. 175 (5): 2121-32, 2009), which are widely used as an Alzheimer's disease model.
The mice were intraventricularly injected with 300 pmol/3 μl of Aβ, and from the day of the injection, they were intraperitoneally administered with 20 mg/kg body weight of the glycyrrhetinic acid derivative (Compound No. 37 group) of the disclosed embodiment or the same volume of physiological saline (vehicle group) three times a week. For control group was used wild type mouse (G57BL/6J) of the same age. Behavioral analysis was performed using the following fear conditioned learning test.
Associative learning was assessed using a fear conditioned learning test (Mouri et al., FASEB J. 21, 2135-2148, 2007; Nagai et al., FASEB J. 17, 50-52, and 2003). The mice were placed in a transparent acrylic cage with a stainless steel grid installed therein and were subjected to a 20 second tone stimulus (80 dB) and to an electric stimulus (0.6 mA) in the last 5 seconds. A set of this combination stimulus was repeated 4 times with 15 second intervals, thereby causing fear conditioning. […]

SMILES	logD (physchem)	delivery into brain ([1]; injected hypodermically, model mice)	delivery into brain ([1]; intraarterial injection)	reaching central nervous system and medicinal effect ([1]; intraperitoneal injection, model mice)	delivery into brain ([1]; intravenous injection)	pain threshold value compared to Gabapentin group ([2]; 20 mg/kg intraperitoneal)	pain threshold value compared to Gabapentin group ([2]; 100 mg/kg subcutaneous)	glutamate concentration in the cerebrospinal fluid ([3]; 20 mg/kg intraperitoneal)	glutamate concentration in the cerebrospinal fluid ([3]; 20 mg/kg subcutaneous)	glutamate concentration in the cerebrospinal fluid ([3]; 100 mg/kg subcutaneous)	LD50 (LD50 test)	extension of survival on average vs saline group [4]	freezing behavior time in the contextual dependency test (memory disorder improvement) [5]
C[n+]1cccc(C(=O)N[C@H]2CC[C@]3(C)[C@H]4C(=O)C=C5[C@@H]6C[C@@](C)(C(=O)O)CC[C@]6(C)CC[C@@]5(C)[C@]4(C)CC[C@H]3C2(C)C)c1 [Compound No. 37]	2.94	is delivered into brain	delivered into brain	reach a central nervous system and exert a medicinal effect	delivered into brain	significant increases of pain threshold values	significant increases of pain threshold values	a decrease of the glutamate concentration in the cerebrospinal fluid, which was equal to or more than that shown in Gabapentin group	a decrease of the glutamate concentration in the cerebrospinal fluid, which was equal to or more than that shown in Gabapentin group	a decrease of the glutamate concentration in the cerebrospinal fluid, which was equal to or more than that shown in Gabapentin group	> 5000 mg/kg	about 17 days	significantly moderated the observed reduction in freezing behavior time
CC1(C)[C@@H](OC(=O)CCC(=O)O)CC[C@]2(C)[C@H]3C(=O)C=C4[C@@H]5C[C@@](C)(C(=O)O)CC[C@]5(C)CC[C@@]4(C)[C@]3(C)CC[C@@H]12 [carbenoxolone, reference compound]	–	–	–	–	–	–	–	–	–	–	100 mg/kg	–	–

From patent US9796751B2, “Glycyrrhetinic acid derivative and use thereof” (INI CORPORATION, priority 2013, dated 2017)
